Test results taken from ChEMBL document CHEMBL1201862, “PubChem BioAssay data set” (2004).
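Where inhibition never reached the appropriate level, the endpoint shown equals the highest concentration tested. Otherwise, values were interpolated linearly from a five-concentration, 48-hour dose response in 96-well plates. Here, GI50 denotes the concentration required for 50% inhibition of growth.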 Calls of active or inactive are those of the source. No stated cut-off is given here; in the data, active = GI50 up to about 1.1 µM and inactive = higher.

Assays:
Assay in all cases: inhibition of tumour cell growth, NCI panel, 48 h
[1] = system: SF-539
[2] = system: NCI-H23
[3] = system: SF-268
[4] = system: OVCAR-5
[5] = system: HCT-15
[6] = system: OVCAR-4
[7] = system: SK-MEL-2
[8] = system: SNB-19
[9] = system: COLO 205
[10] = system: KM12
[11] = system: RPMI-8226
[12] = system: HOP-92
[13] = system: A549
[14] = system: SW-620
[15] = system: LOX IMVI
[16] = system: HCC 2998
[17] = system: RXF 393
[18] = system: SNB-75

Row | SMILES | GI50 [1] | GI50 [2] | GI50 [3] | GI50 [4] | GI50 [5] | GI50 [6] | GI50 [7] | GI50 [8] | GI50 [9] | GI50 [10] | GI50 [11] | GI50 [12] | GI50 [13] | GI50 [14] | GI50 [15] | GI50 [16] | GI50 [17] | GI50 [18]
1 | O=C(CCc1cc(-c2ccccc2)nc(S)n1)N(Cc1ccccc1)Cc1ccccc1 | > 100 µM (inactive) | > 100 µM (inactive) | > 100 µM (inactive) | > 100 µM (inactive) | > 100 µM | > 100 µM (inactive) | > 100 µM (inactive) | > 100 µM (inactive) | > 100 µM (inactive) | > 100 µM (inactive) | > 100 µM (inactive) | 97.3 µM (inactive) | > 100 µM (inactive) | > 100 µM (inactive) | > 100 µM (inactive) | > 100 µM (inactive) | – | –
2 | O/N=C\C(=N/O)Nc1ccc(Cc2ccc(NC(/C=N\O)=N/O)cc2)cc1 | 45.2 µM (inactive) | 55.5 µM (inactive) | > 100 µM (inactive) | 89.9 µM (inactive) | 75.3 µM | 57.9 µM (inactive) | 50.7 µM (inactive) | 97.9 µM (inactive) | 54.7 µM (inactive) | 54 µM (inactive) | 30.5 µM (inactive) | 25.8 µM (inactive) | 87.5 µM (inactive) | 52.1 µM (inactive) | 40.6 µM (inactive) | 83.9 µM (inactive) | – | –
3 | COC(=O)/C(=N/Nc1cccc(Cl)c1)C(C(=O)C(=O)Nc1cccc(Cl)c1C)c1nc2ccccc2nc1C (stereo unspecified) | 59.2 µM (inactive) | > 100 µM (inactive) | > 100 µM (inactive) | 24.4 µM (inactive) | – | 68.5 µM (inactive) | 38.5 µM (inactive) | – | > 100 µM (inactive) | 80.7 µM (inactive) | 88.5 µM (inactive) | – | 63.7 µM (inactive) | > 100 µM (inactive) | – | 43.8 µM (inactive) | > 100 µM (inactive) | –
4 | COC1CC(OS(=O)(=O)c2ccc([N+](=O)[O-])cc2)C(OC(=O)c2ccccc2)C(C)O1 (stereo unspecified) | 54.6 µM (inactive) | > 100 µM (inactive) | 82.2 µM (inactive) | > 100 µM (inactive) | > 100 µM | 49.9 µM (inactive) | – | > 100 µM (inactive) | > 100 µM (inactive) | > 100 µM (inactive) | > 100 µM (inactive) | 55.2 µM (inactive) | > 100 µM (inactive) | > 100 µM (inactive) | > 100 µM (inactive) | > 100 µM (inactive) | 39.1 µM (inactive) | –
5 | CCOC(=O)CC1COc2ccc3c(c21)OCO3 (stereo unspecified) | > 100 µM (inactive) | > 100 µM (inactive) | – | > 100 µM (inactive) | > 100 µM | > 100 µM (inactive) | > 100 µM (inactive) | > 100 µM (inactive) | > 100 µM (inactive) | > 100 µM (inactive) | > 100 µM (inactive) | > 100 µM (inactive) | > 100 µM (inactive) | > 100 µM (inactive) | > 100 µM (inactive) | > 100 µM (inactive) | – | > 100 µM (inactive)
6 | COC(=O)CSc1nnc(-c2ccccc2)[nH]1 | > 100 µM (inactive) | > 100 µM (inactive) | > 100 µM (inactive) | > 100 µM (inactive) | > 100 µM | > 100 µM (inactive) | > 100 µM (inactive) | > 100 µM (inactive) | > 100 µM (inactive) | > 100 µM (inactive) | > 100 µM (inactive) | > 100 µM (inactive) | > 100 µM (inactive) | > 100 µM (inactive) | – | – | – | 40.5 µM (inactive)
7 | COc1ccc(C2S/C(=C\c3ccccc3O)C(=O)N2NC(=O)Cc2ccccc2)cc1 (stereo unspecified) | > 100 µM (inactive) | > 100 µM (inactive) | > 100 µM (inactive) | > 100 µM (inactive) | > 100 µM | > 100 µM (inactive) | > 100 µM (inactive) | – | > 100 µM (inactive) | > 100 µM (inactive) | 48.5 µM (inactive) | > 100 µM (inactive) | 98.6 µM (inactive) | > 100 µM (inactive) | > 100 µM (inactive) | – | 61.7 µM (inactive) | 57.3 µM (inactive)
8 | COC(=O)C(CC(=O)Nc1ccc(Cl)c(Cl)c1)C(=O)C(=O)NC1C2CC3CC(C2)CC1C3 (stereo unspecified) | > 100 µM (inactive) | > 100 µM (inactive) | > 100 µM (inactive) | > 100 µM (inactive) | > 100 µM | > 100 µM (inactive) | > 100 µM (inactive) | > 100 µM (inactive) | > 100 µM (inactive) | > 100 µM (inactive) | > 100 µM (inactive) | > 100 µM (inactive) | > 100 µM (inactive) | > 100 µM (inactive) | > 100 µM (inactive) | > 100 µM (inactive) | > 100 µM (inactive) | –
9 | COc1ccc(C2NC3=C(CCCC3)N2)cc1 | 87.5 µM (inactive) | 67 µM (inactive) | > 100 µM (inactive) | 80.2 µM (inactive) | 44.8 µM | > 100 µM (inactive) | 43.8 µM (inactive) | – | 34 µM (inactive) | 54.3 µM (inactive) | > 100 µM (inactive) | 54.2 µM (inactive) | > 100 µM (inactive) | – | 56.4 µM (inactive) | > 100 µM (inactive) | – | 58.7 µM (inactive)
10 | CCCCCCCCCCC(O)CCCCCCC(=O)O (stereo unspecified) | 24.3 µM (inactive) | 35 µM (inactive) | 77.4 µM (inactive) | 29.4 µM (inactive) | – | 39.1 µM (inactive) | 47.9 µM (inactive) | 48.8 µM (inactive) | 15.7 µM (inactive) | 16.3 µM (inactive) | 10.2 µM (inactive) | 18.1 µM (inactive) | 18.2 µM (inactive) | 29.9 µM (inactive) | 15.8 µM (inactive) | – | 34.1 µM (inactive) | 42.5 µM (inactive)
11 | COC(=O)/C(=C/c1ccc(OC)cc1)C(C(=O)O)=C(C)C | > 100 µM (inactive) | > 100 µM (inactive) | > 100 µM (inactive) | > 100 µM (inactive) | > 100 µM | – | > 100 µM (inactive) | > 100 µM (inactive) | > 100 µM (inactive) | > 100 µM (inactive) | > 100 µM (inactive) | > 100 µM (inactive) | > 100 µM (inactive) | > 100 µM (inactive) | > 100 µM (inactive) | > 100 µM (inactive) | > 100 µM (inactive) | –
12 | CC1OC(OCC2OC(Oc3c(-c4ccc(O)cc4)oc4cc(O)cc(O)c4c3=O)C(OC3OCC(O)(CO)C3O)C(O)C2O)C(O)C(O)C1O (stereo unspecified) | > 100 µM (inactive) | > 100 µM (inactive) | > 100 µM (inactive) | > 100 µM (inactive) | 22.1 µM | > 100 µM (inactive) | > 100 µM (inactive) | > 100 µM (inactive) | 38.1 µM (inactive) | > 100 µM (inactive) | > 100 µM (inactive) | > 100 µM (inactive) | > 100 µM (inactive) | 79.1 µM (inactive) | 51.9 µM (inactive) | > 100 µM (inactive) | – | > 100 µM (inactive)
13 | NC(C(=O)O)c1ccc(C(=O)O)cc1 (stereo unspecified) | > 100 µM (inactive) | > 100 µM (inactive) | > 100 µM (inactive) | > 100 µM (inactive) | > 100 µM | > 100 µM (inactive) | > 100 µM (inactive) | > 100 µM (inactive) | > 100 µM (inactive) | > 100 µM (inactive) | > 100 µM (inactive) | – | > 100 µM (inactive) | > 100 µM (inactive) | > 100 µM (inactive) | > 100 µM (inactive) | > 100 µM (inactive) | > 100 µM (inactive)
